From ChEMBL document CHEMBL5356965, “Discovery and biological evaluation of novel dual PTP1B and ACP1 inhibitors for the treatment of insulin resistance” (Bioorg Med Chem, 2024)
pIC50: −log10 of the molar value.

Legend:
[1] = biological target: T1, Receptor-type tyrosine-protein phosphatase C (Homo sapiens, UniProt P08575)
T1 sequence (P08575 whole entry): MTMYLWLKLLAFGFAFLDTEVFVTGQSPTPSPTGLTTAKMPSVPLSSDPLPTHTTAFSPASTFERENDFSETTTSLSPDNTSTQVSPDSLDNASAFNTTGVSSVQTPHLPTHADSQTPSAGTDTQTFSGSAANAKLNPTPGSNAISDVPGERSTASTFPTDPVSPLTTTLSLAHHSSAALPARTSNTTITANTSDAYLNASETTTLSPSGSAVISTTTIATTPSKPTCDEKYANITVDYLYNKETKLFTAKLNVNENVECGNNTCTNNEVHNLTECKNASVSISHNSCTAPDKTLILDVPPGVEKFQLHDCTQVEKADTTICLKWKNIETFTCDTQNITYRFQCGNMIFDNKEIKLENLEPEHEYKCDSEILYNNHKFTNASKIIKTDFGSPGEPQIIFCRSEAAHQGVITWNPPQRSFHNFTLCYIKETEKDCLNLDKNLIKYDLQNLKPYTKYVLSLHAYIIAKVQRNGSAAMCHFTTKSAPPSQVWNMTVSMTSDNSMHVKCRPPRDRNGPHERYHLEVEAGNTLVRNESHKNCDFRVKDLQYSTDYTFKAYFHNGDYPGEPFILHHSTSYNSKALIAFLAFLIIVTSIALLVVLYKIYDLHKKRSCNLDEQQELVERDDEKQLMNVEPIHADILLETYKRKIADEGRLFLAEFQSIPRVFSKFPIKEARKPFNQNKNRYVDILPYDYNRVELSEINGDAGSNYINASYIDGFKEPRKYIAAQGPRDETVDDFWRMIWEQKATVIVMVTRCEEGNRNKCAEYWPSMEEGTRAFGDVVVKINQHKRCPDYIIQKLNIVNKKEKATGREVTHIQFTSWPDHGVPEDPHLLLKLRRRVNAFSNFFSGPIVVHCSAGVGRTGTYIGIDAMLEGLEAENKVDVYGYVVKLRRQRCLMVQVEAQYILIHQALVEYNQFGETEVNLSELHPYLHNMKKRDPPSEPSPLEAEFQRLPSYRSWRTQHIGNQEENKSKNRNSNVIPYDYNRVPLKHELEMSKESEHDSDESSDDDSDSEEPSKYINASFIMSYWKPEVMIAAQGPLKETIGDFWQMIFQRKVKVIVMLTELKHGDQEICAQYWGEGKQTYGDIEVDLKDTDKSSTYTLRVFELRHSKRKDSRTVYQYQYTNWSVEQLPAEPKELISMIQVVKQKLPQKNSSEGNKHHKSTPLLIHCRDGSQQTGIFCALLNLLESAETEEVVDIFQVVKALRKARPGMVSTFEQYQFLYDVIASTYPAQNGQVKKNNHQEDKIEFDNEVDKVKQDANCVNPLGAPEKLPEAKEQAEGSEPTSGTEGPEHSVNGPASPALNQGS
Description: Inhibition of recombinant human CD45

[2] = biological target: T2, Tyrosine-protein phosphatase non-receptor type 2 (Homo sapiens, UniProt P17706)
T2 sequence (P17706 whole entry): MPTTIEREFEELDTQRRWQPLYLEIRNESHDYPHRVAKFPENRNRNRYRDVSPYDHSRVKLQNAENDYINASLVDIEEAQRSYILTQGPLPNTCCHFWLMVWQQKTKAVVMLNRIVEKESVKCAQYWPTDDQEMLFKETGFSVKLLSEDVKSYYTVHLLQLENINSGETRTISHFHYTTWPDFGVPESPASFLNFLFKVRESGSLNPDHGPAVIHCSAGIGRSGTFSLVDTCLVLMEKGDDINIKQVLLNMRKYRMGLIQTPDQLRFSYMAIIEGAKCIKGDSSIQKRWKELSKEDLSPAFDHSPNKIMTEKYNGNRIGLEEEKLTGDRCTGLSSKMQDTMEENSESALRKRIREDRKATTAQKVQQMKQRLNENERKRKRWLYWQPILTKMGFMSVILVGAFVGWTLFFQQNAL
Description: Inhibition of recombinant human TCPTP

[3] = biological target: T3, Tyrosine-protein phosphatase non-receptor type 1 (Homo sapiens, UniProt P18031); test: Inhibition of recombinant human PTP1B using pNPP as substrate preincubated with compound for 10 mins followed by substrate addition and measured by absorbance based assay
T3 sequence (P18031 whole entry): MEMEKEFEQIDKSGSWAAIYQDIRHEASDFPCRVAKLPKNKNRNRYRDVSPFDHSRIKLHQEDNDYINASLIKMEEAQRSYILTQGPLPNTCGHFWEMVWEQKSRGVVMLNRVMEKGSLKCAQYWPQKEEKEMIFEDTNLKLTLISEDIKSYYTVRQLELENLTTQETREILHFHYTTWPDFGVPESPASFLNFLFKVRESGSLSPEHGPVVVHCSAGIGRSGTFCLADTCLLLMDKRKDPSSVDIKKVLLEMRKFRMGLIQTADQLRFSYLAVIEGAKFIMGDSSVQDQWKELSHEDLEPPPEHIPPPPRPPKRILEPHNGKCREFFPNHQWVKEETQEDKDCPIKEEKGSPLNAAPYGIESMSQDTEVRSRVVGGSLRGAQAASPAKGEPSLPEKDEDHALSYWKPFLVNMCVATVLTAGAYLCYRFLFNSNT

[4] = biological target: T4, Low molecular weight phosphotyrosine protein phosphatase (Homo sapiens, UniProt P24666); test: Inhibition of recombinant human ACP1 using pNPP as substrate preincubated with compound for 10 mins followed by substrate addition and measured by absorbance based assay
T4 sequence (P24666 whole entry): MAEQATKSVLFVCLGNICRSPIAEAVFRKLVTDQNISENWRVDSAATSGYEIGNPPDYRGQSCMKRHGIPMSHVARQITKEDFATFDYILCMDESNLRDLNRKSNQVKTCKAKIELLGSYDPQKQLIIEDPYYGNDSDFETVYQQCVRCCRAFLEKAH

SMILES	pIC50 [1]	pIC50 [2]	pIC50 [3]	pIC50 [4]
COc1cc(/C=C2/NC(=O)N(Cc3ccc(C)cc3)C2=O)ccc1OCc1cccc(C(=O)O)c1	< 4.40	5.08		
COc1cc(/C=C2/NC(=O)N(Cc3ccccc3)C2=O)cc(Cl)c1OCc1cccc(C(=O)O)c1	< 4.40	4.90	5.09	5.28
